Laboratory results: US8173627B2, “Neuroprotective effect of solubilized UDCA in focal ischemic model” (priority 2004, dated 2012)

Test: HPLC bile acid analysis of plasma and brain
Type: in vivo, rat
Details: after UDCA and TUDCA administration
Procedure: Rats were separated into 5 groups, and each received a single injection of vehicle (n=18), 25 mg s-UDCA/Kg (n=9), 100 mg UDCA/Kg (n=18), 400 mg UDCA/kg (n=9), and 400 mg TUDCA/kg (n=9) intravenously immediately after reperfusion.
Blood and brain were collected 1 hour after s-UDCA, TUDCA, or vehicle injection, and were assessed by HPLC for bile acid analysis. Briefly, whole blood was drawn, clotted, and centrifuged and plasma was separated and frozen. After appropriate, humane anesthesia (5% chloral hydrate) and transcardial phosphate buffer perfusion, brains were removed, flash-frozen, and stored at −70° C. Free UDCA concentrations were measured by HPLC (JASCO HPLC Bile Acids Analysis System). Bile acids were assessed by HPLC according to, for example, U.S. patent application Ser. No. 09/778,154 filed Feb. 5, 2001, the full disclosure of which is hereby incorporated by reference.

## C[C@H](CCC(=O)NCCS(=O)(=O)O)[C@H]1CC[C@H]2[C@@H]3[C@@H](O)C[C@@H]4C[C@H](O)CC[C@]4(C)[C@H]3CC[C@]12C [TUDCA, tauroursodeoxycholic acid]
  TUDCA detected in brain as well as blood: not detected
